Measurements reported in PMC4794788, “Cell‐free synthesis of isotopically labelled peptide ligands for the functional characterization of G protein‐coupled receptors” (FEBS Open Bio, 2015).
Where “and” joins values, the source holds several entries; their conditions need not be identical. Equal values may be shown once. Entries after “also recorded” stand apart in the source; their conditions may differ.

Tests used:
[1] = Solubility/precipitation of cell‐free translated peptide in the reaction mix; type: physicochemical; conditions: soluble vs pellet fraction
Procedure: Complement 5a is flanked by an N‐terminal 6x His tag followed by a tobacco etch virus (TEV) cleavage site. […] Expression of both constructs is controlled by a T7 promoter. Cell‐free synthesis was accomplished using a homemade S30 extract from E. coli 6. The extract was prepared from the E. coli A19 strain, described in detail in 6. The T7 RNA polymerase was produced and purified as published 50. Cell‐free reactions were executed in continuous exchange mode by using different sizes of D‐Tube™ dialyzers (Merck Millipore) (mini for reactions containing labelled amino acids and maxi for reactions with unlabeled amino acids) and a 1 : 17 ratio between reaction (RM) and feeding mix (FM). Mini D‐tube™ dialyzers were placed into 2 mL tubes filled with feeding mix, maxi dialyzers into 50 mL tubes, respectively. […] Reactions were incubated at 30 °C, 100 rpm in an Infors Multitron shaker incubator (Infors, Bottmingen, Switzerland) overnight. Cell‐free reactions were analysed by SDS/PAGE using 10% Bis/Tris Novex NuPAGE gels (Life Technologies).

[2] = biological target: T1, human complement 5a receptor (C5aR) (Homo sapiens, UniProt P21730); assay: Competition binding against [^3H]‐C5a^CF at C5aR in Sf9 membranes; conditions: read-out: KI (inhibition constant)
T1 construct: 10x His (N); FLAG (N); StrepII (C); made in house; host or cells: Sf9 insect cells (recombinant baculovirus, pOET5 / flashBAC); membrane preparation
T1 sequence (P21730 1-350): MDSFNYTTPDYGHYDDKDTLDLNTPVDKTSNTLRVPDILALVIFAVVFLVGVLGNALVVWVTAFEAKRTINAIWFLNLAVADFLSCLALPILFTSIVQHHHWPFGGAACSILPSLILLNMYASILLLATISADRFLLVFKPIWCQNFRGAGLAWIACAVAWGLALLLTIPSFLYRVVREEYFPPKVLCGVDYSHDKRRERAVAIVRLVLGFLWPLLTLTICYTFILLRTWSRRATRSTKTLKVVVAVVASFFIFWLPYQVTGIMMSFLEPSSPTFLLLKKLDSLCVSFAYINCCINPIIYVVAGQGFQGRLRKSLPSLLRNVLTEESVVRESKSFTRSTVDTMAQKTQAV
Text: The complement 5a receptor was coproduced with Gαi2 in Sf9 insect cells. The cDNA encoding the human complement 5a receptor flanked by an N‐terminal 10x His and FLAG tag and a C‐terminal StrepII tag was cloned into the pOET5 transfer vector (Oxford Expression Technologies, Oxford, UK). pOET5 contains two expression cassettes, the receptor is expressed under the control of a polyhedron promoter; Gαi2 expression is regulated by a p10 promoter. Recombinant baculoviruses were generated with the flashBAC protein expression system (Oxford Expression Technologies) according to manufacturer's instructions. […] Total membrane protein content was determined by the bicinchoninic acid (BCA) method using bovine serum albumin as the standard.
For the determination of binding parameters, membranes containing the respective receptors (10–50 μg total membrane protein) were incubated with cell‐free synthesized tritium‐labelled ligands in varying concentrations. Binding was terminated by rapid filtration over glass fibre filters pretreated with 0.3% polyethyleneimine using a Brandel harvester (Brandel, Alpha Biotech Ltd, Killearn, UK) and analysed by liquid scintillation counting. […]
Data are represented as means ± SEM from three or two independent experiments performed in triplicate and analysed in […] […]

[3] = tested on: C5aR; conditions: literature comparison; cited from earlier work
Text: Table 1 Binding parameters of cell‐free synthesized radioligands | column: Literature IC50 [nM]

[4] = biological target: endothelin receptors (Table 1: compared with ETBR); conditions: determined with ^125I‐ET‐1 on receptors from native human tissues; literature comparison; cited from earlier work
[5] = biological target: C5aR; conditions: C5aR in native human tissues; literature comparison; cited from earlier work
Procedure: Table 1 Binding parameters of cell‐free synthesized radioligands | column: Literature KD [nM] || As the interaction between C5a and its receptor is mainly mediated by the disulphide bridged core region of C5a (residues 21–55, 22) and the C‐terminal region (especially Arg^74 30) the N‐terminal hexa‐histidine tag was not removed. The cell‐free synthesized ligand binds to the complement 5a receptor with a dissociation constant of 1.18 ± 0.27 nM (Fig. 4A), which corresponds to values determined by Gerard and Gerard for C5aR in native human tissues (1 nM 31, Table 1). Competition experiments with the unlabelled small molecule inverse agonist NDT 9513727 and the peptide antagonist H2N‐ChaW resu ...

[6] = with DsbA and reduced glutathione (GSH) replacing DTT

Molecule: CC[C@H](C)[C@H](NC(=O)[C@H](CC(=O)O)NC(=O)[C@H](CC(C)C)NC(=O)[C@H](Cc1cnc[nH]1)NC(=O)[C@@H]1CSSC[C@H](N)C(=O)N[C@@H](CO)C(=O)N[C@H]2CSSC[C@H](NC(=O)[C@H](CCC(=O)O)NC(=O)[C@H](CCCCN)NC(=O)[C@H](CC(=O)O)NC(=O)[C@H](CCSC)NC(=O)[C@H](CC(C)C)NC(=O)[C@H](CO)NC(=O)[C@H](CO)NC2=O)C(=O)N[C@@H](C(C)C)C(=O)N[C@@H](Cc2ccc(O)cc2)C(=O)N[C@@H](Cc2ccccc2)C(=O)N1)C(=O)N[C@H](C(=O)N[C@@H](Cc1c[nH]c2ccccc12)C(=O)O)[C@@H](C)CC [Endothelin‐1, reference compound]
- Solubility/precipitation of cell‐free product ([1]; reducing conditions (DTT), without DsbA, listed as ET‐1): strong precipitation; also recorded: heavy precipitation
- Solubility/precipitation of cell‐free product [1, 6]: did not display any precipitates

Molecule: CCCCn1c(-c2ccccc2)nc(-c2ccccc2)c1CN(Cc1ccc2c(c1)OCO2)Cc1ccc2c(c1)OCO2 [NDT 9513727, N,N‐Bis(1,3‐benzodioxol‐5‐ylmethyl)‐1‐butyl‐2,4‐diphenyl‐1H‐imidazole‐5‐methanamine]
- Ki [2]: 169 nM and 54.5 nM
- IC50 [3]: 11.6 ± 1 nM

Molecule: ^125I‐ET‐1: ^125I‐labelled endothelin‐1
- Kd [4]: 0.33 nM

B1: C5a^CF: cell‐free‐synthesized complement 5a containing the N‐terminal 6xHis tag and TEV cleavage site (protein, UniProt P01031 678-751, looked up)
C5a anaphylatoxin: TLQKKIEEIAAKYKHSVVKKCCYDGACVNNDETCEQRAARISLGPRCIKAFTECCVVASQLRANISHKDMQLGR
modifications: C5a anaphylatoxin N-terminal 6xHis tag and TEV site
notes: cell‐free‐synthesized complement 5a containing the N‐terminal 6xHis tag and TEV cleavage site
- Solubility/precipitation of cell‐free product ([1]; reducing conditions (DTT), without DsbA): strong precipitation; also recorded: insoluble and can only be detected in the pellet fraction; also recorded: heavy precipitation
- Solubility/precipitation of cell‐free product [1, 6]: did not display any precipitates; also recorded: can be detected in the soluble fraction

B2: ^125I‐C5a: commercially available ^125I‐C5a (protein, UniProt P01031 678-751, looked up)
C5a anaphylatoxin: B1 C5a anaphylatoxin
modifications: C5a anaphylatoxin 125I-labelled
notes: commercially available ^125I‐C5a
- Kd [5]: 1 nM
